In ChEMBL document CHEMBL6115030, “Systematic All-Hydrocarbon Stapling Analysis for Cecropin A Generates a Potent and Stable Antimicrobial Peptide” (J Med Chem, 2025):
≈ marks a conversion by molar mass, not a printed value. Numbered stars: 1 amine (or outer) side, 2 acyl side, 3 side chain; on linkers, the order of the positions; unused ones are H or OH. Bridge positions count the residues as written; N and C are the ends. Square brackets hold non-standard residues; d marks the D form. Peptide text beside a SMILES is read from it. ξ: configuration not given here. ξαMeNle(6-ylidene) = CC(CCCC=[*:3])(N[*:1])C(=O)[*:2]; S5 = C=CCCC[C@](C)(N)C(=O)O

Experiments:
Staphylococcus aureus = test: Antibacterial activity against Staphylococcus aureus ATCC 25923 assessed as inhibition of bacterial growth measured after 24 hrs by broth microdilution method; assay type: functional
Klebsiella pneumoniae [1] = test: Antibacterial activity against Klebsiella pneumoniae ATCC 13883 assessed as inhibition of bacterial growth measured after 24 hrs by broth microdilution method; assay type: functional
Pseudomonas aeruginosa [2] = test: Antibacterial activity against Pseudomonas aeruginosa PAO1 assessed as inhibition of bacterial growth measured after 24 hrs by broth microdilution method; assay type: functional
[3] = Hemolytic activity in human RBC assessed as hemolysis incubated for 1 hr by microplate reader; assay type: toxicity, cell-based, Erythrocyte; details: erythrocyte, 1 h
Acinetobacter baumannii = test: Antibacterial activity against Pandrug-resistant Acinetobacter baumannii assessed as inhibition of bacterial growth measured after 24 hrs by broth microdilution method; assay type: functional
Klebsiella pneumoniae [4] = test: Antibacterial activity against Carbapenem-resistant Klebsiella pneumoniae assessed as inhibition of bacterial growth measured after 24 hrs by broth microdilution method; assay type: functional
Pseudomonas aeruginosa [5] = test: Antibacterial activity against Carbapenem-resistant Pseudomonas aeruginosa assessed as inhibition of bacterial growth measured after 24 hrs by broth microdilution method; assay type: functional
Pseudomonas aeruginosa [6] = test: Antibacterial activity against Pandrug-resistant Pseudomonas aeruginosa assessed as inhibition of bacterial growth measured after 24 hrs by broth microdilution method; assay type: functional
Salmonella typhimurium = test: Antibacterial activity against Salmonella typhimurium assessed as inhibition of bacterial growth measured after 24 hrs by broth microdilution method; assay type: functional, Salmonella enterica subsp. enterica serovar Typhimurium; details: Salmonella enterica
Shigella flexneri = test: Antibacterial activity against Shigella flexneri 301 assessed as inhibition of bacterial growth measured after 24 hrs by broth microdilution method; assay type: functional

CC[C@H](C)[C@H](NC(=O)CNC(=O)[C@H](CC(=O)O)NC(=O)[C@H](CCCNC(=N)N)NC(=O)[C@@H](NC(=O)[C@H](CC(N)=O)NC(=O)[C@H](CCC(N)=O)NC(=O)CNC(=O)[C@@H](NC(=O)[C@H](CCCCN)NC(=O)[C@H](CCC(=O)O)NC(=O)[C@@H](NC(=O)[C@H](CCCCN)NC(=O)[C@H](CCCCN)NC(=O)[C@H](Cc1ccccc1)NC(=O)[C@H](CC(C)C)NC(=O)[C@H](CCCCN)NC(=O)[C@H](Cc1c[nH]c2ccccc12)NC(=O)[C@H](CCCCN)NC(C)=O)[C@@H](C)CC)C(C)C)[C@@H](C)CC)C(=O)N[C@H](C(=O)N[C@@H](CCCCN)C(=O)N[C@@H](C)C(=O)NCC(=O)N1CCC[C@H]1C(=O)N[C@@H](C)C(=O)N[C@H](C(=O)N[C@@H](C)C(=O)N[C@H](C(=O)N[C@H](C(=O)NC1(C)CCC/C=C\CCC[C@@](C)(C(=O)N[C@H](C(=O)N[C@@H](C)C(=O)N[C@@H](CCCCN)C(N)=O)[C@@H](C)CC)NC(=O)[C@H]([C@@H](C)O)NC(=O)[C@H](C)NC(=O)[C@H](CCC(N)=O)NC1=O)C(C)C)C(C)C)C(C)C)[C@@H](C)CC (some centres undefined) (Ac-KWKLFKKIEKVGQNIRDGIIKAGPAVAVV[ξαMeNle(6-ylidene)]QAT[S5]IAK-NH2; staple (Z) 30-34)
MIC (Staphylococcus aureus): 3.13 µM (≈ 12.9 µg/mL) | MIC (Klebsiella pneumoniae [1]): 6.25 µM (≈ 25.7 µg/mL) | MIC (Pseudomonas aeruginosa [2]): 6.25 µM (≈ 25.7 µg/mL) | Activity [3]: Non-toxic

CC[C@H](C)[C@H](NC(=O)CNC(=O)[C@H](CC(=O)O)NC(=O)[C@H](CCCNC(=N)N)NC(=O)[C@@H](NC(=O)[C@H](CC(N)=O)NC(=O)[C@H](CCC(N)=O)NC(=O)CNC(=O)[C@@H](NC(=O)[C@H](CCCCN)NC(=O)[C@H](CCC(=O)O)NC(=O)[C@@H](NC(=O)[C@H](CCCCN)NC(=O)[C@H](CCCCN)NC(=O)[C@H](Cc1ccccc1)NC(=O)[C@H](CC(C)C)NC(=O)[C@H](CCCCN)NC(=O)[C@H](Cc1c[nH]c2ccccc12)NC(=O)[C@H](CCCCN)NC(C)=O)[C@@H](C)CC)C(C)C)[C@@H](C)CC)C(=O)N[C@H](C(=O)N[C@@H](CCCCN)C(=O)N[C@@H](C)C(=O)NCC(=O)N1CCC[C@H]1C(=O)N[C@@H](C)C(=O)N[C@H](C(=O)N[C@@H](C)C(=O)N[C@H](C(=O)N[C@@]1(C)CCC/C=C\CCC[C@@](C)(C(=O)N[C@@H](CCC(N)=O)C(=O)N[C@H](C(=O)N[C@@H](C)C(=O)N[C@@H](CCCCN)C(N)=O)[C@@H](C)CC)NC(=O)[C@H](C)NC(=O)[C@H](CCC(N)=O)NC(=O)CNC1=O)C(C)C)C(C)C)[C@@H](C)CC (Ac-KWKLFKKIEKVGQNIRDGIIKAGPAVAV[S5]GQA[S5]QIAK-NH2; staple (Z) 29-33)
MIC (Staphylococcus aureus): 1.56 µM (≈ 6.39 µg/mL) | MIC (Klebsiella pneumoniae [1]): 1.56 µM (≈ 6.39 µg/mL) | MIC (Pseudomonas aeruginosa [2]): 6.25 µM (≈ 25.6 µg/mL) | MIC (Acinetobacter baumannii): < 0.78 µM | MIC (Klebsiella pneumoniae [4]): 3.13 µM (≈ 12.8 µg/mL) | MIC (Pseudomonas aeruginosa [5]): > 100 µM | MIC (Pseudomonas aeruginosa [6]): 25 µM (≈ 102 µg/mL) | MIC (Salmonella typhimurium): 1.5 µM (≈ 6.14 µg/mL) | MIC (Shigella flexneri): < 0.78 µM

CC[C@H](C)[C@H](NC(=O)CNC(=O)[C@H](CC(=O)O)NC(=O)[C@H](CCCNC(=N)N)NC(=O)[C@@H](NC(=O)[C@H](CC(N)=O)NC(=O)[C@H](CCC(N)=O)NC(=O)CNC(=O)[C@@H](NC(=O)[C@H](CCCCN)NC(=O)[C@H](CCC(=O)O)NC(=O)[C@@H](NC(=O)[C@H](CCCCN)NC(=O)[C@H](CCCCN)NC(=O)[C@]1(C)CCC/C=C\CCC[C@](C)(NC(C)=O)C(=O)N[C@@H](Cc2c[nH]c3ccccc23)C(=O)N[C@@H](CCCCN)C(=O)N[C@@H](CC(C)C)C(=O)N1)[C@@H](C)CC)C(C)C)[C@@H](C)CC)C(=O)N[C@H](C(=O)N[C@@H](CCCCN)C(=O)N[C@@H](C)C(=O)NCC(=O)N1CCC[C@H]1C(=O)N[C@@H](C)C(=O)N[C@H](C(=O)N[C@@H](C)C(=O)N[C@H](C(=O)N[C@H](C(=O)NCC(=O)N[C@@H](CCC(N)=O)C(=O)N[C@@H](C)C(=O)N[C@H](C(=O)N[C@@H](CCC(N)=O)C(=O)N[C@H](C(=O)N[C@@H](C)C(=O)N[C@@H](CCCCN)C(N)=O)[C@@H](C)CC)[C@@H](C)O)C(C)C)C(C)C)C(C)C)[C@@H](C)CC (Ac-[S5]WKL[S5]KKIEKVGQNIRDGIIKAGPAVAVVGQATQIAK-NH2; staple (Z) 1-5)
MIC (Staphylococcus aureus): > 100 µM | MIC (Klebsiella pneumoniae [1]): 12.5 µM (≈ 50.3 µg/mL) | MIC (Pseudomonas aeruginosa [2]): > 100 µM

CC[C@H](C)[C@H](NC(=O)CNC(=O)[C@H](CC(=O)O)NC(=O)[C@H](CCCNC(=N)N)NC(=O)[C@@H](NC(=O)[C@H](CC(N)=O)NC(=O)[C@H](CCC(N)=O)NC(=O)CNC(=O)[C@@H](NC(=O)[C@]1(C)CCC/C=C\CCC[C@](C)(NC(=O)[C@H](Cc2ccccc2)NC(=O)[C@H](CC(C)C)NC(=O)[C@H](CCCCN)NC(=O)[C@H](Cc2c[nH]c3ccccc23)NC(=O)[C@H](CCCCN)NC(C)=O)C(=O)N[C@@H](CCCCN)C(=O)N[C@@H]([C@@H](C)CC)C(=O)N[C@@H](CCC(=O)O)C(=O)N1)C(C)C)[C@@H](C)CC)C(=O)N[C@H](C(=O)N[C@@H](CCCCN)C(=O)N[C@@H](C)C(=O)NCC(=O)N1CCC[C@H]1C(=O)N[C@@H](C)C(=O)N[C@H](C(=O)N[C@@H](C)C(=O)N[C@H](C(=O)N[C@H](C(=O)NCC(=O)N[C@@H](CCC(N)=O)C(=O)N[C@@H](C)C(=O)N[C@H](C(=O)N[C@@H](CCC(N)=O)C(=O)N[C@H](C(=O)N[C@@H](C)C(=O)N[C@@H](CCCCN)C(N)=O)[C@@H](C)CC)[C@@H](C)O)C(C)C)C(C)C)C(C)C)[C@@H](C)CC (Ac-KWKLF[S5]KIE[S5]VGQNIRDGIIKAGPAVAVVGQATQIAK-NH2; staple (Z) 6-10)
MIC (Staphylococcus aureus): > 100 µM | MIC (Klebsiella pneumoniae [1]): > 100 µM | MIC (Pseudomonas aeruginosa [2]): > 100 µM

CC[C@H](C)[C@H](NC(=O)[C@H](CCC(N)=O)NC(=O)[C@@H](NC(=O)[C@H](C)NC(=O)[C@H](CCC(N)=O)NC(=O)CNC(=O)[C@@H](NC(=O)[C@@H](NC(=O)[C@H](C)NC(=O)[C@@H](NC(=O)[C@H](C)NC(=O)[C@@H]1CCCN1C(=O)CNC(=O)[C@H](C)NC(=O)[C@H](CCCCN)NC(=O)[C@@H](NC(=O)[C@]1(C)CCC/C=C\CCC[C@](C)(NC(=O)[C@H](CC(N)=O)NC(=O)[C@H](CCC(N)=O)NC(=O)CNC(=O)[C@@H](NC(=O)[C@H](CCCCN)NC(=O)[C@H](CCC(=O)O)NC(=O)[C@@H](NC(=O)[C@H](CCCCN)NC(=O)[C@H](CCCCN)NC(=O)[C@H](Cc2ccccc2)NC(=O)[C@H](CC(C)C)NC(=O)[C@H](CCCCN)NC(=O)[C@H](Cc2c[nH]c3ccccc23)NC(=O)[C@H](CCCCN)NC(C)=O)[C@@H](C)CC)C(C)C)C(=O)N[C@@H](CCCNC(=N)N)C(=O)N[C@@H](CC(=O)O)C(=O)NCC(=O)N1)[C@@H](C)CC)C(C)C)C(C)C)C(C)C)[C@@H](C)O)C(=O)N[C@@H](C)C(=O)N[C@@H](CCCCN)C(N)=O (Ac-KWKLFKKIEKVGQN[S5]RDG[S5]IKAGPAVAVVGQATQIAK-NH2; staple (Z) 15-19)
MIC (Staphylococcus aureus): > 100 µM | MIC (Klebsiella pneumoniae [1]): 12.5 µM (≈ 50.9 µg/mL) | MIC (Pseudomonas aeruginosa [2]): 100 µM (≈ 407 µg/mL)

CC[C@H](C)[C@H](NC(=O)CNC(=O)[C@H](CC(=O)O)NC(=O)[C@H](CCCNC(=N)N)NC(=O)[C@@H](NC(=O)[C@H](CC(N)=O)NC(=O)[C@H](CCC(N)=O)NC(=O)CNC(=O)[C@@H](NC(=O)[C@H](CCCCN)NC(=O)[C@H](CCC(=O)O)NC(=O)[C@@H](NC(=O)[C@H](CCCCN)NC(=O)[C@H](CCCCN)NC(=O)[C@H](Cc1ccccc1)NC(=O)[C@H](CC(C)C)NC(=O)[C@H](CCCCN)NC(=O)[C@H](Cc1c[nH]c2ccccc12)NC(=O)[C@H](CCCCN)NC(C)=O)[C@@H](C)CC)C(C)C)[C@@H](C)CC)C(=O)N[C@H](C(=O)N[C@@H](CCCCN)C(=O)N[C@@H](C)C(=O)NCC(=O)N1CCC[C@H]1C(=O)N[C@@H](C)C(=O)N[C@H](C(=O)N[C@@H](C)C(=O)N[C@H](C(=O)N[C@H](C(=O)NCC(=O)N[C@@]1(C)CCC/C=C\CCC[C@@](C)(C(=O)N[C@@H](C)C(=O)N[C@@H](CCCCN)C(N)=O)NC(=O)[C@H](CCC(N)=O)NC(=O)[C@H]([C@@H](C)O)NC(=O)[C@H](C)NC1=O)C(C)C)C(C)C)C(C)C)[C@@H](C)CC (Ac-KWKLFKKIEKVGQNIRDGIIKAGPAVAVVG[S5]ATQ[S5]AK-NH2; staple (Z) 31-35)
MIC (Staphylococcus aureus): 3.13 µM (≈ 12.7 µg/mL) | MIC (Klebsiella pneumoniae [1]): 12.5 µM (≈ 50.7 µg/mL) | MIC (Pseudomonas aeruginosa [2]): 12.5 µM (≈ 50.7 µg/mL) | Activity [3]: Non-toxic

CC[C@H](C)[C@H](NC(=O)CNC(=O)[C@H](CC(=O)O)NC(=O)[C@]1(C)CCC/C=C\CCC[C@](C)(NC(=O)[C@@H](NC(=O)[C@H](CCCCN)NC(=O)[C@H](CCC(=O)O)NC(=O)[C@@H](NC(=O)[C@H](CCCCN)NC(=O)[C@H](CCCCN)NC(=O)[C@H](Cc2ccccc2)NC(=O)[C@H](CC(C)C)NC(=O)[C@H](CCCCN)NC(=O)[C@H](Cc2c[nH]c3ccccc23)NC(=O)[C@H](CCCCN)NC(C)=O)[C@@H](C)CC)C(C)C)C(=O)N[C@@H](CCC(N)=O)C(=O)N[C@@H](CC(N)=O)C(=O)N[C@@H]([C@@H](C)CC)C(=O)N1)C(=O)N[C@H](C(=O)N[C@@H](CCCCN)C(=O)N[C@@H](C)C(=O)NCC(=O)N1CCC[C@H]1C(=O)N[C@@H](C)C(=O)N[C@H](C(=O)N[C@@H](C)C(=O)N[C@H](C(=O)N[C@H](C(=O)NCC(=O)N[C@@H](CCC(N)=O)C(=O)N[C@@H](C)C(=O)N[C@H](C(=O)N[C@@H](CCC(N)=O)C(=O)N[C@H](C(=O)N[C@@H](C)C(=O)N[C@@H](CCCCN)C(N)=O)[C@@H](C)CC)[C@@H](C)O)C(C)C)C(C)C)C(C)C)[C@@H](C)CC (Ac-KWKLFKKIEKV[S5]QNI[S5]DGIIKAGPAVAVVGQATQIAK-NH2; staple (Z) 12-16)
MIC (Staphylococcus aureus): 25 µM (≈ 102 µg/mL) | MIC (Klebsiella pneumoniae [1]): > 100 µM | MIC (Pseudomonas aeruginosa [2]): > 100 µM
